Laboratory results from the supplement of paper PMC4862054.

What was measured:
Test in all cases: normalised response (% of control), CellTiter-Glo; higher = more viable cells (100 = DMSO, 0 = benzethonium chloride kill control)
Settings in all cases: incubation time: 72 h
[1] = test system: SK-BR-3
How it was run: (§1)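 Values are normalised signals, each belonging to one concentration of the series. Breast cancer cells (20 µl suspension) were seeded into 384-well plates with compound at 5 concentrations in 10-fold steps over a compound-specific 10,000-fold range and incubated 72 h. Readouts were CellTox Green fluorescence (485/520 nm), then CellTiter-Glo luminescence after 10 min at room temperature, with each plate set to 0.1 % DMSO as 100 and a positive kill control as 0.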

[2] = test system: MDA-MB-231
How it was run: as §1

[3] = test system: CAL-148
How it was run: as §1

[4] = test system: MDA-MB-468
How it was run: as §1

[5] = test system: HDQ-P1
How it was run: as §1

[6] = test system: BT-474
How it was run: as §1

[7] = test system: BT-549
How it was run: as §1

[8] = test system: HCC1143
How it was run: as §1

[9] = test system: CAL-51
How it was run: as §1

SMILES	normalised response [1] [%]	normalised response [2] [%]	normalised response [3] [%]	normalised response [4] [%]	normalised response [5] [%]	normalised response [6] [%]	normalised response [7] [%]	normalised response [8] [%]	normalised response [9] [%]
O=NN(CCCl)C(=O)NC1CCCCC1 [Lomustine] (1000 nM)	94.6	98.5	95.3	104	102	101	107	98.1	112
C[C@@H](C(=O)O)c1ccc(-c2ccccc2)c(F)c1 [Tarenflurbil] (1000 nM)	87.8	95	91.7	94.8	94.7	92	99.3	92.5	119
CCN(CC)CCOc1ccc(C(=C(Cl)c2ccccc2)c2ccccc2)cc1 [Clomifene] (1000 nM)	101	99.2	106	103	95.9	98.5	95.5	102	95.2
CC[C@@H]1C(=O)N(C)c2cnc(Nc3ccc(C(=O)N[C@H]4CC[C@H](N5CCN(CC6CC6)CC5)CC4)cc3OC)nc2N1C(C)C [Volasertib] (100 nM)	16.1	48.5	53	36.5	76.6	63.6	25.9	50.5	23.7
Cc1cc2c(F)c(Oc3ncnn4cc(OC[C@@H](C)O)c(C)c34)ccc2[nH]1 [Brivanib] (100 nM)	103	107	105	108	104	107	94	107	80.6
CC/C(=C(\c1ccccc1)c1ccc(OCCN(C)C)cc1)c1ccccc1 [Tamoxifen] (1000 nM)	103	103	103	93.8	106	95.9	96.1	104	81.8
C[C@]12C=CC(=O)C=C1CC[C@@H]1[C@@H]2C(=O)C[C@@]2(C)[C@H]1CC[C@]2(O)C(=O)CO [Prednisone] (1000 nM)	103	103	105	103	100	104	95.4	102	120
O=C(O)CC[C@H]1CC[C@@](c2cc(F)ccc2F)(S(=O)(=O)c2ccc(Cl)cc2)CC1 [MK-0752] (100 nM)	109	104	95.4	107	95.6	98.7	91.6	108	113
Cc1c(N)nc([C@H](CC(N)=O)NC[C@H](N)C(N)=O)nc1C(=O)N[C@H](C(=O)N[C@H](C)[C@@H](O)[C@H](C)C(=O)N[C@H](C(=O)NCCc1nc(-c2nc(C(=O)NCCC[S+](C)C)cs2)cs1)[C@@H](C)O)[C@@H](OC1OC(CO)C(O)C(O)C1OC1OC(CO)C(O)C(OC(N)=O)C1O)c1cnc[nH]1 (stereo partly drawn) [Bleomycin] (1000 nM)	84.8	88.3	82.1	86.1	103	91.3	66.7	83.1	49
NC(=O)NO [Hydroxyurea] (10000 nM)	110	103	101	107	100	92.7	90.8	105	45.2
Nc1nc(Cl)nc2c1ncn2[C@@H]1O[C@H](CO)[C@@H](O)[C@@H]1F [Clofarabine] (1000 nM)	42.7	91	58.5	43.7	79.4	78.7	35.7	44.1	26.9
NC(=O)c1cccc2cn(-c3ccc([C@@H]4CCCNC4)cc3)nc12 [MK-4827] (1000 nM)	98.8	109	97.6	101	102	109	97.4	104	95.2
